Measured values as given in paper PMC10056348, “Photocaged Histone Deacetylase Inhibitors as Prodrugs in Targeted Cancer Therapy” (Pharmaceuticals, 2023).

Key:
MV-3 cell line = experiment: MTT cell viability assay, MV-3; type: cell-based
Description: (§1) The amelanotic melanoma cell line MV-3 was obtained from EPO GmbH Berlin-Buch. The human ovarian carcinoma cell line A2780 was obtained from the European Collection of Cell Cultures (ECACC, Salisbury, UK). The cell lines were cultivated in RPMI 1640 medium supplemented with 10% fetal bovine serum and 50 U/mL penicillin and 50 µg/mL streptomycin and incubated at 37 °C under humidified air with 5% CO2 to 80–90% confluency before being used in further assays.
(§2) For this, 200-fold dilution series of the compounds of the respective stock solutions in DMSO (10 mM) were prepared in DMSO using clear U-bottom 96-well microplates (Greiner Bio-One, Greiner AG, Kremsmünster, Austria). Predilutions intended for photolysis experiments were irradiated for 10 min in the UV reactor described above. Thereafter, all predilutions were further diluted 1:200 in medium and provided in clear sterile F-bottom 96-well plates (Starlab GmbH, Hamburg, Germany). MV-3 cells were added at a density of 3000 cells/well and A2780 cells at a density of 8000 cells/well. The cells were added directly and without prior attachment. Final volume was 200 µL, and the final DMSO concentration was 0,5%. After 72 h, 40 µL MTT (3-(4,5-dimethylthiazol-2-yl)-2,5-diphenyltetrazolium bromide; BioChemica, Applichem GmbH, Darmstadt, Germany ) solution (5 mg/mL in phosphate-buffered saline) was added to determine cell survival. The formazan dye was dissolved in DMSO (Sigma-Aldrich, Steinheim, Germany) after 1 h, and absorbance was measured at 570 nm and 690 nm using a Multiskan microplate photometer (Thermo Fisher Scientific, Waltham, MA, USA). Concentration-effect curves were generated using the four-parameter logistic equation (GraphPad Prism 9.0, San Diego, CA, USA), and mean IC50 values were determined by nonlinear regression based on at least three distinct experiments in duplicates.

A2780 cell line = experiment: MTT cell viability assay, A2780; type: cell-based, human
Description: as §1, §2

[1] = system: acetyl-α-tubulin in MV-3 cells; experiment: Immunoblot of acetyl-α-tubulin (marker of HDAC6 inhibition); type: cell-based; conditions: 24 h, 3.1 µM
Description: MV-3 cells were seeded to cell culture flasks and cultured for 48 h. Aliquots of the DMSO stock solution (10 mM) designated for photolysis were irradiated for 10 min with the UV reactor (see Section 4.3). The cells were treated with the stock solutions, processed with or without irradiation, of the indicated concentration or vehicle (DMSO) for 24 h. Cell lysis was performed with Cell Extraction Buffer (10 mM Tris, pH 7.4, 100 mM NaCl, 1 mM EDTA, 1 mM EGTA, 1 mM NaF, 20 mM Na4P2O7, 2 mM Na3VO4, 1% Triton™ ×-100, 10% glycerol, 0.1% SDS, 0.5% deoxycholate; Catalog# FNN0011, Thermo Fisher Scientific Inc., Waltham, MA, USA) and addition of Halt Protease Inhibitor Cocktail (100×) (Catalog# 78429, Life Technologies GmbH Carlsbad, CA, USA) and phenylmethanesulfonyl fluoride (Catalog# 10837091001, Sigma-Aldrich, St. Louis, MO, USA) according to manufacturer instructions. Protein content was determined by Pierce™ BCA Protein Assay Kit (Catalog# 23225, Thermo Fisher Scientific Inc., Waltham, MA, USA) according to manufacturer guidelines. Samples were denatured by Laemmli 2× Concentrate (Catalog# S3401-10VL, Sigma-Aldrich, St. Louis, MO, USA), and Precision Plus Protein Unstained Standard was used as molecular weight marker (Catalog# 1610363, Bio-Rad, Hercules, CA, USA). SDS-PAGE was performed with 10% Mini-PROTEAN TGX Stain-Free Gel at 200 V for 50 min (Catalog# 458035, Bio-Rad, Hercules, CA, USA). Afterwards, proteins were transferred with the Trans-Blot Turbo Transfer System (Catalog# 1704150, Bio-Rad, Hercules, CA, USA) to Immobilon-FL PVDF membranes (Catalog# IPFL00005, Millipore Merck, Burlington, MA, USA) at 1.0 A for 30 min and incubated with 5% milk-powder solution for 1 h at room temperature under slight agitation. Subsequently, the membranes were incubated with anti-acetyl-histone H3 (Catalog# 9677S, Cell Signaling Technology, Denver, MA, USA), anti-acetyl-α-tubulin (Catalog#5335, Cell Signaling Technology, Denver, MA, USA), and anti-GAPDH (Catalog# T0004, Affinity Biosciences, Cincinnati, OH, USA) in 1:1000–1:10000 dilutions at 4 °C, overnight. […]

[2] = MTT, 72 h, without UV irradiation

CN(C)c1ccc(C(=O)N(CC(=O)NCc2ccccc2)Cc2ccc(C(=O)NO)cc2)cc1 [I, N-[2-(benzylamino)-2-oxoethyl]-4-(dimethylamino)-N-[4-(hydroxycarbamoyl)-benzyl]-benzamide]
IC50 (MV-3 cell line; MV-3, light or radiation study, MTT, 72 h, without UV irradiation): 616 ± 161 nM | IC50 (A2780 cell line; Homo sapiens, A2780, light or radiation study, MTT, 72 h, without UV irradiation): 249 ± 84.7 nM | level of acetylated α-tubulin ([1]; without UV irradiation): strong hyperacetylation

COc1cc(CONC(=O)c2ccc(CN(CC(=O)NCc3ccccc3)C(=O)c3ccc(N(C)C)cc3)cc2)c([N+](=O)[O-])cc1OC [pc-I, N-[2-(Benzylamino)-2-oxoethyl]-N-(4-{[(4,5-dimethoxy-2-nitrobenzyl)oxy]carbamoyl}benzyl)-4-(dimethylamino)benzamide]
IC50 (MV-3) (MV-3 cell line; [2]): n.e. ^b (n.e— no effect: <25% inhibition at 25 µM) | IC50 (MV-3 cell line; MV-3, light or radiation study, MTT, 72 h, after UV irradiation (365 nm, 10 min)): 727 ± 133 nM | inhibition at 25 µM (MV-3 cell line; MV-3, light or radiation study, at 25 µM, without UV irradiation): < 25% | IC50 (A2780 cell line; Homo sapiens, A2780, light or radiation study, MTT, 72 h, after UV irradiation (365 nm, 10 min)): 428 ± 62.5 nM | inhibition at 25 µM (A2780 cell line; Homo sapiens, A2780, light or radiation study, at 25 µM, without UV irradiation): < 25% | IC50 (A2780) (A2780 cell line; [2]): n.e. ^b (n.e— no effect: <25% inhibition at 25 µM) | level of acetylated α-tubulin ([1]; after UV irradiation (365 nm, 10 min)): increased level of acetyl-α-tubulin | level of acetylated α-tubulin ([1]; without UV irradiation): no increased levels of acetylated α-tubulin
